The target of the assay is T1, mouse TRPM3α2 (mTRPM3) ion channel (Mus musculus, UniProt J9SQF3).
T1 construct: expressed in transfected cells; host or cells: flip-in HEK293
T1 sequence (J9SQF3 1-1709 isoform J9SQF3-12): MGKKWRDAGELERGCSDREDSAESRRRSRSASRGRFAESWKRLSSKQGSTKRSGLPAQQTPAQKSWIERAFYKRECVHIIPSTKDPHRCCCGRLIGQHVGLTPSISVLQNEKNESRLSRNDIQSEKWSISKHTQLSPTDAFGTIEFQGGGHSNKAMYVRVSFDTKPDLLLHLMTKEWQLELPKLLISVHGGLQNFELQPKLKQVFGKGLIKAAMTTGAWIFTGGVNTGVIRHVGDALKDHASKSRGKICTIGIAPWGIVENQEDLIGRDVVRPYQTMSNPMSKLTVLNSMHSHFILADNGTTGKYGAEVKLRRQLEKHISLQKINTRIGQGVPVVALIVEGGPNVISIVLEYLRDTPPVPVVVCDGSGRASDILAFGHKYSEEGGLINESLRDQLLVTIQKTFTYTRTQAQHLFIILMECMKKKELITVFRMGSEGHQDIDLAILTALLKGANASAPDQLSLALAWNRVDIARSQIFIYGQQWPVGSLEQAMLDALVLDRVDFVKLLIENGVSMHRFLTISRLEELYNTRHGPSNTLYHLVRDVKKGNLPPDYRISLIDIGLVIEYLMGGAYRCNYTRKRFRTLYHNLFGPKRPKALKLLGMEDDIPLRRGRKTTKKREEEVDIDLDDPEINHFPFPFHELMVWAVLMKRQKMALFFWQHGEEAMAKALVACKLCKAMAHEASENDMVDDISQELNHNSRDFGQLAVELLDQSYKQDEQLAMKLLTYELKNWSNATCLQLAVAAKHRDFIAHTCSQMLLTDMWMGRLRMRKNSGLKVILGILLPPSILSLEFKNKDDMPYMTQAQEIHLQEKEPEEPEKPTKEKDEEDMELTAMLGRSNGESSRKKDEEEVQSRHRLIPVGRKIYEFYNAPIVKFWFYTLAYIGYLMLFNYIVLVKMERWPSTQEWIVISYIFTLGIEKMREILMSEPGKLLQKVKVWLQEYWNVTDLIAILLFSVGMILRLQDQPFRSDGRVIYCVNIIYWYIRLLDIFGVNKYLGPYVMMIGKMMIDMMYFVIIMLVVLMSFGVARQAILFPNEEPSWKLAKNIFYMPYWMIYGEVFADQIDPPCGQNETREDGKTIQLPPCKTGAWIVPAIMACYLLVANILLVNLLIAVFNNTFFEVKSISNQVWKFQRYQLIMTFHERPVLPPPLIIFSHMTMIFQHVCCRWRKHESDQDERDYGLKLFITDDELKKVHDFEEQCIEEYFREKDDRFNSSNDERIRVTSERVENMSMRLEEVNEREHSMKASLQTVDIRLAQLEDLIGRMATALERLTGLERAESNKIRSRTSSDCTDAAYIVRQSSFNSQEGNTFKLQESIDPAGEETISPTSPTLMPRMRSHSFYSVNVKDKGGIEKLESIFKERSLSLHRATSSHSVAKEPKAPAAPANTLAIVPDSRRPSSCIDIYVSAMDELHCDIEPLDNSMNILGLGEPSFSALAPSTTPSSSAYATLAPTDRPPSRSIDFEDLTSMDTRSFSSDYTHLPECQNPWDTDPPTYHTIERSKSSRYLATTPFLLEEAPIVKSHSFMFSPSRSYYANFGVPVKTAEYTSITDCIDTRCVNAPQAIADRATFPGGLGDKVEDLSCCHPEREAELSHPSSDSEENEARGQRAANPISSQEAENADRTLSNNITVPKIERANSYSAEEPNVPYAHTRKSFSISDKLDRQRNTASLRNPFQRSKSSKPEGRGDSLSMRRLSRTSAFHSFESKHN
Description: TRPM3 ion channel driven Ca2+ uptake, Fluo-4 AM assay, mTRPM3alpha2 overexpressing flip-in HEK293 cells stimulated with pregnenolone sulfate (50 μM). It counts as cell-based. To be noted: mTRPM3 overexpressing HEK293 cells stimulated with pregnenolone sulfate (50 μM), activity ranges A, B, C. A digest of the protocol: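 Ca2+ influx via mouse TRPM3α2 was opened with pregnenolone sulfate (50 μM) and tracked by Fluo-4 AM fluorescence at 485/535 nm, read directly after adding about 2000 stably transfected HEK293 cells per well to compound. IC50 values come from percent inhibition scaled to vehicle and positive-control inhibitor signals.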
With `Cn1nc2ccc(OCc3ccccn3)cc2c1C(=O)NC1(CO)CC1C(F)F` (single isomer, unassigned) [Cpd 237 - En2], the IC50 is above 20 µM.
As to `Cn1nc2ccc(OCc3ccccc3)cc2c1C(=O)NC1CNCC1(F)F` (single isomer, unassigned) [Cpd 002 - En2, 5-(benzyloxy)-N-(4,4-difluoropyrrolidin-3-yl)-2-methyl-2H-indazole-3-carboxamide], the IC50 was in the range of 1 to 20 µM.
The compound `Cc1ncsc1COc1ccc2nn(C)c(C(=O)NC3CCN(CCO)C3=O)c2c1` (stereo not drawn) [Cpd 037, N-[1-(2-hydroxyethyl)-2-oxopyrrolidin-3-yl]-2-methyl-5-[(4-methyl-1,3-thiazol-5-yl)methoxy]-2H-indazole-3-carboxamide] came in with an IC50 above 20 µM.
In turn, `Cn1ccc(C(CO)NC(=O)c2c3cc(OCc4ccccn4)ccc3nn2C)n1` (single isomer, unassigned) [Cpd 251 - En1] had an IC50 above 20 µM.
Next, `Cn1nc2ccc(OCc3cccnc3C(F)(F)F)cc2c1C(=O)NCCN1CCOC1=O` [Cpd 073, 2-methyl-N-[2-(2-oxo-1,3-oxazolidin-3-yl)ethyl]-5-{[2-(trifluoromethyl)pyridin-3-yl]methoxy}-2H-indazole-3-carboxamide]: 1 to 20 µM; `Cn1nc2ccc(OCc3ccccc3)cc2c1C(=O)NC1CCNC1=O` (stereo not drawn) [Cpd 008, 5-(benzyloxy)-2-methyl-N-(2-oxopyrrolidin-3-yl)-2H-indazole-3-carboxamide]: 1 to 20 µM.
`Cc1ncsc1COc1ccc2nn(C)c(C(=O)NC(C)(CO)CC(F)F)c2c1` (single isomer, unassigned) [Cpd 182 - En1] yielded an IC50 below 1 µM.
In turn, `Cn1nc2ccc(OCc3ccccn3)cc2c1C(=O)NC(CO)Cc1ccccn1` (single isomer, unassigned) [Cpd 252 - En2] yielded an IC50 above 20 µM.
`Cc1ncsc1COc1ccc2nn(C)c(C(=O)NC3COCC3O)c2c1` (single isomer, unassigned) [Cpd 080 - Dia2] had an IC50 above 20 µM.
On to `Cn1nc2ccc(OCc3ccccn3)cc2c1C(=O)NCC(O)CC(F)(F)F` (single isomer, unassigned) [Cpd 245 - En1], for which the IC50 is above 20 µM.
With `Cn1nc2ccc(OCc3ccccn3)cc2c1C(=O)NCc1c(F)cccc1C(F)(F)F` [Cpd 209, N-{[2-fluoro-6-(trifluoromethyl)phenyl]methyl}-2-methyl-5-[(pyridin-2-yl)methoxy]-2H-indazole-3-carboxamide], the IC50 is above 20 µM.
Turning to `CNC(=O)C(C)(CO)NC(=O)c1c2cc(OCc3scnc3C)ccc2nn1C` (single isomer, unassigned) [Cpd 185 - En1, 3-hydroxy-N,2-dimethyl-2-({2-methyl-5-[(4-methyl-1,3-thiazol-5-yl)methoxy]-2H-indazol-3-yl}formamido)propanamide], the IC50 was 1 to 20 µM.
Next, `Cn1nc2ccc(OCC3COC3)cc2c1C(=O)NC(C)(CO)C(N)=O` (single isomer, unassigned) [Cpd 167 - En1]: above 20 µM; `Cn1nc2ccc(OCc3ccccn3)cc2c1C(=O)NC(CO)CC(F)(F)F` (single isomer, unassigned) [Cpd 226-En1]: below 1 µM.
The same measure for `Cn1nccc1COc1ccc2nn(C)c(C(=O)NCC(C)(C)CO)c2c1` [Cpd 012, N-(3-hydroxy-2,2-dimethylpropyl)-2-methyl-5-[(1-methyl-1H-pyrazol-5-yl)methoxy]-2H-indazole-3-carboxamide]: 1 to 20 µM.
In the case of `Cn1nc2ccc(OCc3ccccn3)cc2c1C(=O)NC(CO)Cc1ccccn1` (single isomer, unassigned) [Cpd 252 - En1], the IC50 was above 20 µM.
Next, `Cn1nccc1COc1ccc2nn(C)c(C(=O)NC3CCN(CC(F)(F)F)C3)c2c1` (stereo not drawn) [Cpd 050, 2-methyl-5-[(1-methyl-1H-pyrazol-5-yl)methoxy]-N-[1-(2,2,2-trifluoroethyl)pyrrolidin-3-yl]-2H-indazole-3-carboxamide]: 1 to 20 µM; `CCn1nc2ccc(OCc3ccccn3)cc2c1C(=O)NC(C)(CO)C(N)=O` (single isomer, unassigned) [Cpd 188 - En1, 2-({2-ethyl-5-[(pyridin-2-yl)methoxy]-2H-indazol-3-yl}formamido)-3-hydroxy-2-methylpropanamide]: 1 to 20 µM.
Next, `Cn1nc2ccc(OCc3ccccc3)cc2c1C(=O)NCc1cccc(O)n1` [Cpd 025, 5-(benzyloxy)-N-[(6-hydroxypyridin-2-yl)methyl]-2-methyl-2H-indazole-3-carboxamide]: below 1 µM.
Next, `COCC(C)(CO)NC(=O)c1c2cc(OCc3ccccn3)ccc2nn1C` (single isomer, unassigned) [Cpd 258 - En2]: 1 to 20 µM; `Cc1ncsc1COc1ccc2nn(C)c(C(=O)NC3CNCCC3(F)F)c2c1` (single isomer, unassigned) [Cpd 211 - En1, N-(4,4-difluoropiperidin-3-yl)-2-methyl-5-[(4-methyl-1,3-thiazol-5-yl)methoxy]-2H-indazole-3-carboxamide]: 1 to 20 µM; `Cc1ncsc1COc1ccc2nn(C)c(C(=O)N[C@H](C)C(N)=O)c2c1` [Cpd 118, (2R)-2-({2-methyl-5-[(4-methyl-1,3-thiazol-5-yl)methoxy]-2H-indazol-3-yl}formamido)propanamide]: 1 to 20 µM.
With `Cn1nc2ccc(OCc3ccccn3)cc2c1C(=O)NC(CO)Cc1ncccn1` (single isomer, unassigned) [Cpd 243 - En1], the IC50 was above 20 µM.
For the compound `C[C@H](NC(=O)c1c2cc(OCc3ccccc3F)ccc2nn1C)C(N)=O` [Cpd 099, (2S)-2-({5-[(2-fluorophenyl)methoxy]-2-methyl-2H-indazol-3-yl}formamido)propanamide], the IC50 is below 1 µM.
Next, `Cn1nccc1COc1ccc2nn(C)c(C(=O)NC3CCNC3=O)c2c1` (stereo not drawn) [Cpd 062, 2-methyl-5-[(1-methyl-1H-pyrazol-5-yl)methoxy]-N-(2-oxopyrrolidin-3-yl)-2H-indazole-3-carboxamide]: above 20 µM; `Cc1ncc(COc2ccc3nn(C)c(C(=O)NC(C)(CO)C(N)=O)c3c2)o1` (single isomer, unassigned) [Cpd 179 - En2]: below 1 µM; `CC(=O)C(C)(CO)NC(=O)c1c2cc(OCc3ccccn3)ccc2nn1C` (single isomer, unassigned) [Cpd 232 - En1]: 1 to 20 µM.
The same measure for `Cn1nc2ccc(OCc3ccccn3)cc2c1C(=O)NC1(CO)CC1` [Cpd 104, N-[1-(hydroxymethyl)cyclopropyl]-2-methyl-5-[(pyridin-2-yl)methoxy]-2H-indazole-3-carboxamide]: above 20 µM; for `Cn1nc2ccc(OCc3cccnc3C(F)(F)F)cc2c1C(=O)NC1(CO)CCNC1=O` (single isomer, unassigned) [Cpd 177 - En1]: below 1 µM; for `COCC(C)(CC(F)F)NC(=O)c1c2cc(OCc3ccccn3)ccc2nn1C` (single isomer, unassigned) [Cpd 230 - En1]: above 20 µM.
As to `Cn1nc2ccc(OCC3CCOCC3)cc2c1C(=O)NC(C)(CO)C(N)=O` (single isomer, unassigned) [Cpd 158 - En2], the IC50 was above 20 µM.
Take `Cc1ncsc1COc1ccc2nn(C)c(C(=O)NCC3CCC(=O)N3)c2c1` (stereo not drawn) [Cpd 063, 2-methyl-5-[(4-methyl-1,3-thiazol-5-yl)methoxy]-N-[(5-oxopyrrolidin-2-yl)methyl]-2H-indazole-3-carboxamide]: the IC50 fell in the range of 1 to 20 µM.
Next, `Cn1nc2ccc(OCc3cccnc3)cc2c1C(=O)NC1(C(N)=O)CCOC1` (single isomer, unassigned) [Cpd 168 - En1]: 1 to 20 µM; `Cn1ccc(C(CO)NC(=O)c2c3cc(OCc4ccccn4)ccc3nn2C)n1` (single isomer, unassigned) [Cpd 251 - En2]: above 20 µM; `Cn1nc2ccc(OCc3ccccc3F)cc2c1C(=O)NC(CO)CO` [Cpd 262, N-(1,3-dihydroxypropan-2-yl)-5-[(2-fluorophenyl)methoxy]-2-methyl-2H-indazole-3-carboxamide]: 1 to 20 µM.
In turn, `Cn1nc2ccc(OCc3ccccn3)cc2c1C(=O)NC(CCO)c1ccc(F)cc1` (single isomer, unassigned) [Cpd 223 - En2] came in with an IC50 above 20 µM.
The same measure for `Cn1nc2ccc(OCc3cccnc3C(F)(F)F)cc2c1C(=O)NC1(C(N)=O)CCOC1` (single isomer, unassigned) [Cpd 178 - En2]: below 1 µM.
Next, `Cn1nc2ccc(OCc3cccnc3C(F)(F)F)cc2c1C(=O)NC(C)(CO)CC(F)F` (single isomer, unassigned) [Cpd 202 - En2]: below 1 µM; `Cn1nc2ccc(OCc3ccccn3)cc2c1C(=O)NC(C)(CO)CC(F)(F)F` (single isomer, unassigned) [Cpd 255 - En1, 2-methyl-5-[(pyridin-2-yl)methoxy]-N-(4,4,4-trifluoro-1-hydroxy-2-methylbutan-2-yl)-2H-indazole-3-carboxamide]: 1 to 20 µM.
The same measure for `Cc1ccc(COc2ccc3nn(C)c(C(=O)NC4(C(N)=O)CCOC4)c3c2)cn1` (single isomer, unassigned) [Cpd 164 - En2, N-(3-carbamoyloxolan-3-yl)-2-methyl-5-[(6-methylpyridin-3-yl)methoxy]-2H-indazole-3-carboxamide]: 1 to 20 µM; for `Cn1ccc(NC(=O)c2c3cc(OCc4cccnc4C(F)(F)F)ccc3nn2C)n1` [Cpd 013, 2-methyl-N-(1-methyl-1H-pyrazol-3-yl)-5-{[2-(trifluoromethyl)pyridin-3-yl]methoxy}-2H-indazole-3-carboxamide]: 1 to 20 µM; for `Cc1ncsc1COc1ccc2nn(C)c(C(=O)NC3(CO)COC3)c2c1` [Cpd 109, N-[3-(hydroxymethyl)oxetan-3-yl]-2-methyl-5-[(4-methyl-1,3-thiazol-5-yl)methoxy]-2H-indazole-3-carboxamide]: 1 to 20 µM.

The term IC50 denotes the point on the concentration scale where inhibition reaches its midpoint. The low end stands for higher potency, the high end for lower potency.
